Measurements from patent publication US10633407B2, “14-membered ketolides and methods of their preparation and use” (President and Fellows of Harvard College, priority 2014, dated 2020).
≈ marks a conversion by molar mass, not a printed value.

Assays:
Assay in all cases: CLSI broth dilution MIC determination
Format in all cases: cell-based
[1] = tested on: E. coli ATCC 25922; conditions: Escherichia coli, ATCC25922, E. coli ATCC 25922 (MP-4); read-out: MIC
In short: (§1)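 Compounds are serially diluted in broth per CLSI standard methods to give the MIC; azithromycin and solithromycin act as comparator macrolides in many cases, and resistance genotypes may be inducible or constitutive.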

[2] = tested on: E. coli MP-532 clinical-cErmB; conditions: Escherichia coli
In short: as §1

[3] = tested on: E. coli MP-541 clinical; conditions: Escherichia coli, MP541CLINICAL, read-out: MIC
In short: as §1

[4] = tested on: E. coli MP-9 ATCC25922:tolC; conditions: Escherichia coli, ATCC25922
In short: as §1

[5] = tested on: S. aureus (MRSA) MP-513 ST-228 cErm (Clinical-cErm); conditions: Staphylococcus aureus, read-out: MIC
In short: as §1

[6] = tested on: S. aureus ATCC 29213; conditions: Staphylococcus aureus, ATCC29213; S. aureus ATCC 29213 (MP-12); read-out: MIC
In short: as §1

[7] = tested on: S. aureus MP-17 ATCCBAA-977 (BAA 977 iErm); conditions: Staphylococcus aureus; S. aureus MP-17, ATCCBAA-977, iErm; read-out: MIC
In short: as §1

[8] = tested on: S. aureus MRSA: USA100; conditions: Staphylococcus aureus; S. aureus MRSA: USA100 (MP-618 UNT-096); read-out: MIC
In short: as §1

[9] = tested on: S. aureus MRSA: USA300; conditions: Staphylococcus aureus; S. aureus MRSA: USA300 (MP-549, msr(a)); read-out: MIC
In short: as §1

[10] = tested on: S. aureus USA600, GISA; conditions: Staphylococcus aureus; S. aureus USA600, GISA (MP-619 UNT-120); read-out: MIC
In short: as §1

[11] = tested on: S. aureus erm A genotype; conditions: Staphylococcus aureus; S. aureus erm A genotype (MP-620 UNT-146); read-out: MIC
In short: as §1

[12] = tested on: S. pneumoniae ATCC 49619; conditions: Streptococcus pneumoniae, ATCC49619, S. pneumoniae ATCC 49619 (MP-21); read-out: MIC
In short: as §1

[13] = tested on: S. pneumoniae mef A genotype (first strain so labelled); conditions: Streptococcus pneumoniae, first strain (MP-626 UNT-038)
In short: as §1

[14] = tested on: S. pneumoniae mef A genotype (second strain so labelled); conditions: Streptococcus pneumoniae, second strain (MP-627 UNT-039), read-out: MIC
In short: as §1

[15] = tested on: S. pyogenes ATCC 19615; conditions: Streptococcus pyogenes, ATCC19615, S. pyogenes ATCC 19615 (MP-19); read-out: MIC
[16] = tested on: S. pyogenes Macrolide-resistant; conditions: Streptococcus pyogenes, S. pyogenes Macrolide-resistant (MP-625 UNT-014); read-out: MIC
[17] = tested on: E. faecalis ATCC 29212; conditions: Enterococcus faecalis, ATCC29212, E. faecalis ATCC 29212 (MP-24); read-out: MIC
[18] = tested on: E. faecalis Vancomycin-resistant; conditions: Enterococcus faecalis, E. faecalis Vancomycin-resistant (UNT-039); read-out: MIC
[19] = tested on: A. baumannii ATCC 19606; conditions: Acinetobacter baumannii, ATCC19606; A. baumannii ATCC 19606 (MP-15); read-out: MIC
[20] = tested on: K. pneumoniae ATCC 10031; conditions: Klebsiella pneumoniae, ATCC10031, K. pneumoniae ATCC 10031 (MP-14); read-out: MIC
[21] = tested on: P. aeruginosa ATCC 27853; conditions: Pseudomonas aeruginosa, ATCC27853; P. aeruginosa ATCC 27853 (MP-3); read-out: MIC
[22] = tested on: P. aeruginosa MP-7 PAO1; conditions: Pseudomonas aeruginosa, read-out: MIC
[23] = tested on: P. aeruginosa MP-8 PAO1:mex (mex-oprM-deletion); conditions: Pseudomonas aeruginosa, PAO1
[24] = tested on: K. pneumoniae MP-548 clinical; conditions: Klebsiella pneumoniae, MP548CLINICAL, read-out: MIC
[25] = tested on: K. pneumoniae MP-546 Clinical-MDR; conditions: Klebsiella pneumoniae, read-out: MIC
[26] = tested on: A. baumannii MP-577 Clinical-AZT low; conditions: Acinetobacter baumannii, read-out: MIC
[27] = tested on: A. baumannii MP-576 Clinical-MDR; conditions: Acinetobacter baumannii, read-out: MIC

In the case of `CC[C@H]1OC(=O)[C@H](C)C(=O)[C@H](C)[C@@H](O[C@@H]2OC(C)CC(N(C)C)C2O)[C@](C)(OC)C[C@@H](C)C(=O)[C@H](C)[C@H]2N(CC#CCn3cc(-c4cccc(N)n4)nn3)C(=O)O[C@]12C` (stereo partly drawn) [FSM-100551], the MIC [1] is reported as 8 µg/mL (≈ 9.71 µM), the MIC [2] is reported as > 64 µg/mL and the MIC [3] is reported as 16 µg/mL (≈ 19.4 µM). The MIC [4] was 2 µg/mL (≈ 2.43 µM), the MIC [5] was > 64 µg/mL and the MIC [6] was 0.06 µg/mL (≈ 0.0728 µM). The MIC [7] was 0.06 µg/mL (≈ 0.0728 µM), the MIC [8] was > 64 µg/mL and the MIC [9] was 0.125 µg/mL (≈ 0.152 µM). For the same compound, the MIC [10] was 64 µg/mL (≈ 77.7 µM), the MIC [11] was > 64 µg/mL and the MIC [12] was < 0.03 µg/mL. The MIC [13] was < 0.03 µg/mL, the MIC [14] was < 0.03 µg/mL and the MIC [15] was < 0.03 µg/mL. For the same compound, the MIC [16] was 0.06 µg/mL (≈ 0.0728 µM), the MIC [17] was < 0.03 µg/mL and the MIC [18] was 4 µg/mL (≈ 4.85 µM). The MIC [19] was 4 µg/mL (≈ 4.85 µM), the MIC [20] was 8 µg/mL (≈ 9.71 µM) and the MIC [21] was 16 µg/mL (≈ 19.4 µM). The MIC [22] was 32 µg/mL (≈ 38.8 µM), the MIC [23] was 4 µg/mL (≈ 4.85 µM) and the MIC [24] was 32 µg/mL (≈ 38.8 µM). The MIC [25] was > 64 µg/mL, the MIC [26] was 16 µg/mL (≈ 19.4 µM) and the MIC [27] was > 64 µg/mL.

In the case of `CC[C@H]1OC(=O)[C@@](C)(F)C(=O)[C@H](C)[C@@H](O[C@@H]2OC(C)CC(N(C)C)C2O)[C@](C)(OC)C[C@@H](C)C(=O)[C@H](C)[C@H]2N(CC#CCn3cc(-c4cc(F)ccn4)nn3)C(=O)O[C@]12C` (stereo partly drawn) [FSM-100563], the MIC [1] is reported as 16 µg/mL (≈ 18.9 µM), the MIC [2] is reported as > 64 µg/mL and the MIC [3] is reported as 16 µg/mL (≈ 18.9 µM). For the same compound, the MIC [4] was 2 µg/mL (≈ 2.37 µM), the MIC [5] was 16 µg/mL (≈ 18.9 µM) and the MIC [6] was 0.06 µg/mL (≈ 0.071 µM). The MIC [7] was 0.06 µg/mL (≈ 0.071 µM), the MIC [8] was 32 µg/mL (≈ 37.9 µM) and the MIC [9] was 0.125 µg/mL (≈ 0.148 µM). For the same compound, the MIC [10] was 16 µg/mL (≈ 18.9 µM), the MIC [11] was 16 µg/mL (≈ 18.9 µM) and the MIC [12] was < 0.03 µg/mL. For the same compound, the MIC [13] was < 0.03 µg/mL, the MIC [14] was < 0.03 µg/mL and the MIC [15] was < 0.03 µg/mL. For the same compound, the MIC [16] was < 0.03 µg/mL, the MIC [17] was < 0.03 µg/mL and the MIC [18] was 2 µg/mL (≈ 2.37 µM). For the same compound, the MIC [19] was 8 µg/mL (≈ 9.47 µM), the MIC [20] was 8 µg/mL (≈ 9.47 µM) and the MIC [21] was 32 µg/mL (≈ 37.9 µM). It also gave an MIC [22] of 64 µg/mL (≈ 75.7 µM), an MIC [23] of 8 µg/mL (≈ 9.47 µM) and an MIC [24] of 64 µg/mL (≈ 75.7 µM). For the same compound, the MIC [25] was > 64 µg/mL, the MIC [26] was 32 µg/mL (≈ 37.9 µM) and the MIC [27] was > 64 µg/mL.
